Results taken from US11690845B2, “Methods of administering elagolix” (priority 2020, dated 2023).

Experiments:
[1] = Drug interaction studies: pharmacokinetics of co-administered drug in the presence of elagolix; format: in vivo, human; conditions: for changes in exposures when co-administered with elagolix: elagolix 300 mg twice daily
Method: Drug interaction studies were performed with elagolix and other drugs likely to be co-administered and with drugs commonly used as probes for pharmacokinetic interactions. Tables 7 and 8 summarize the pharmacokinetic effects when elagolix was co-administered with these drugs.

[2] = clinical; conditions: human, in vivo
Method: Subjects: Twenty adult premenopausal female subjects were enrolled in the study.
Beginning on Day 3, subjects received elagolix 300 mg BID under fasting conditions every day until Day 10. […] Doses of elagolix were separated by approximately 12 hours.
Testing was performed for CYP2C19 variants including the *2 (rs4244285), *3 (rs4986893), *4 (rs28399504), *8 (rs41291556), *10 (rs6413438) and *12 (rs55640102) alleles.
Safety was evaluated during confinement and at each study visit through adverse event monitoring, vital signs measurements, physical examinations, and routine laboratory tests.

[3] = Drug interactions: effects of ORIAHNN on plasma exposure of other drugs; conditions: co-administration of ORIAHNN
[4] = system: CYP3A; assay: Substrate of / metabolism by CYP3A; format: in vitro ADME
[5] = Drug-drug interaction study: effect of elagolix on pharmacokinetics of CYP2B6 substrate bupropion and OH-bupropion; safety; conditions: for Tmax / Metabolite to Parent AUCinf Ratio / Metabolite to Parent AUCt Ratio / Metabolite to Parent Cmax Ratio: median; for Tmax: N = 24; for t1/2: harmonic mean; for AUCinf / AUCt / Cmax: mean
Method: Subjects: Twenty four (24) adult premenopausal women in generally good health participated in this study.
Elagolix 300 mg BID (as 300 mg immediate release tablets) was administered in the morning and evening on days 1 through 14 in period 2. […] No food was consumed for 2 hours prior to the evening doses of elagolix continuing through 2 hours after. The doses of elagolix were separated by approximately 12 hours.
Individual PK parameters (peak concentration [Cmax] and area under the concentration-time curve [AUC]) were estimated using noncompartmental methods.
Central value ratios (90% confidence intervals) for Cmax, AUC, and metabolite to parent ratios (MPRs) (day 11, period 2 vs. day 1, period 1) were calculated to assess the DDIs. Safety was evaluated through assessment of adverse events, vital signs, electrocardiogram, and clinical laboratory tests.
Adverse events (AEs) were monitored throughout the DDI study. Additional safety evaluations included monitoring of physical examinations, vital signs, electrocardiogram variables, and clinical laboratory values were assessed

[6] = Digoxin 0.5 mg single dose, elagolix 200 mg twice daily ×10 days, N 11
[7] = Bupropion + Elagolix (Day 11, Period 2)
[8] = Bupropion Alone (Day 1, Period 1)
[9] = single 150 mg bupropion, elagolix 300 mg twice daily for 10 preceding days, interval in brackets
[10] = Midazolam 2 mg single dose, elagolix 150 mg once daily ×13 days, N 11
[11] = Midazolam 2 mg single dose, elagolix 300 mg twice daily ×11 days, N 20
[12] = Rosuvastatin 20 mg once daily, elagolix 300 mg twice daily ×7 days, N 10

CC(NC(C)(C)C)C(=O)c1cccc(Cl)c1.Cl (racemic) [bupropion, (±)-1-(3-chlorophenyl)-2-[(1,1-dimethylethyl)amino]-1-propanone hydrochloride]
changes in exposures when co-administered with elagolix [1]: No clinically significant changes

COc1ccc2nc([S+]([O-])Cc3ncc(CO)c(OC)c3C)[nH]c2c1 (stereo not shown) [5-hydroxyomeprazole]
decrease in AUCinf with elagolix [2]: 20-30% | AUCinf ([2]; 40 mg): 1880 ng·h/mL | AUCt ([2]; 40 mg): 1820 ng·h/mL | Cmax ([2]; 40 mg): 491 ng/mL | t1/2 ([2]; 40 mg): 1.57 h | decrease in AUCinf with elagolix ([2]; 300 mg): ~25% | decrease in Cmax with elagolix ([2]; 300 mg): approximately 30%

C[C@H]1O[C@@H](O[C@H]2[C@@H](O)C[C@H](O[C@H]3[C@@H](O)C[C@H](O[C@H]4CC[C@@]5(C)[C@H](CC[C@@H]6[C@@H]5C[C@@H](O)[C@]5(C)[C@@H](C7=CC(=O)OC7)CC[C@]65O)C4)O[C@@H]3C)O[C@@H]2C)C[C@H](O)[C@@H]1O [digoxin]
Ratio (90% CI) AUC, co-administration with elagolix vs medication alone [1, 6]: 1.26 | Ratio (90% CI) Cmax, co-administration with elagolix vs medication alone [1, 6]: 1.71 | Effect on Plasma Exposure of Concomitant Drug (AUC) [3]: ↑ digoxin

C[C@]12CC[C@@H]3c4ccc(O)cc4CC[C@H]3[C@@H]1CC[C@@H]2O [estradiol]
metabolism by CYP3A [4]: metabolized partially

OC(Cn1cncn1)(Cn1cncn1)c1ccc(F)cc1F [fluconazole]
changes in exposures when co-administered with elagolix [1]: No clinically significant changes

C[C@H]1NC(C)(C)CO[C@]1(O)c1cccc(Cl)c1 [hydroxybupropion]
Tmax ([5]; Bupropion + Elagolix (Day 11, Period 2), elagolix 300 mg BID): 6.0 h | t1/2 [5, 7]: 20.5 h | AUCinf [5, 7]: 17600 ng·h/mL | AUCt [5, 7]: 17000 ng·h/mL | Cmax [5, 7]: 429 ng/mL | Metabolite to Parent AUCinf Ratio [5, 7]: 15.9 | Metabolite to Parent AUCt Ratio [5, 7]: 15.9 | Metabolite to Parent Cmax Ratio [5, 7]: 3.92 | Tmax ([5]; Bupropion Alone (Day 1, Period 1), 150 mg single dose): 10.0 h | t1/2 [5, 8]: 24.7 h | AUCinf [5, 8]: 16700 ng·h/mL | AUCt [5, 8]: 15700 ng·h/mL | Cmax [5, 8]: 323 ng/mL | Metabolite to Parent AUCinf Ratio [5, 8]: 15.7 | Metabolite to Parent AUCt Ratio [5, 8]: 15.4 | Metabolite to Parent Cmax Ratio [5, 8]: 3.61 | increase in Cmax upon co-administration with elagolix ([5]; elagolix 300 mg BID): 32% | changes in OH-bupropion/bupropion ratios of Cmax and AUC upon co-administration with elagolix ([5]; elagolix 300 mg BID, minimal changes): ≤ 120% | AUCinf ratio, co-administration of bupropion with elagolix vs bupropion alone (A/B) [5, 9]: about 1.063 | Cmax ratio, co-administration of bupropion with elagolix vs bupropion alone (A/B) [5, 9]: about 1.317

Cc1ncc2n1-c1ccc(Cl)cc1C(c1ccccc1F)=NC2 [midazolam]
Ratio (90% CI) AUC, co-administration with elagolix vs medication alone [1, 10]: 0.65 | Ratio (90% CI) Cmax, co-administration with elagolix vs medication alone [1, 10]: 0.81 | Ratio (90% CI) AUC, co-administration with elagolix vs medication alone [1, 11]: 0.46 | Ratio (90% CI) Cmax, co-administration with elagolix vs medication alone [1, 11]: 0.56 | Effect on Plasma Exposure of Concomitant Drug (AUC) [3]: ↓ midazolam

C#C[C@]1(OC(C)=O)CC[C@H]2[C@@H]3CCC4=CC(=O)CC[C@@H]4[C@H]3CC[C@@]21C [norethindrone acetate]
metabolism by CYP3A [4]: metabolized partially

COc1ccc2nc(S(=O)(=O)Cc3ncc(C)c(OC)c3C)[nH]c2c1 [omeprazole sulfone]
M:P AUCinf Ratio, Relative Bioavailability Point Estimate ([2]; female): 1.246 | M:P AUCt Ratio, Relative Bioavailability Point Estimate ([2]; female): 1.497 | increase in exposures with elagolix ([2]; female): ~3 fold | Cmax ([2]; female, 40 mg): 162 ng/mL | M:P AUCinf Ratio, Central Value Reference ([2]; female, 40 mg): 0.825 | M:P AUCt Ratio, Central Value Reference ([2]; female, 40 mg): 0.679 | RAUCinf (metabolite-to-parent AUCinf ratio) ([2]; female, 40 mg): 0.85 | RAUCt (metabolite-to-parent AUCt ratio) ([2]; female, 40 mg): 0.76 | increase in AUCinf with elagolix ([2]; female, 300 mg): 2.5 fold | increase in Cmax with elagolix ([2]; female, 300 mg): 2.7 fold | increase in M:P AUCinf ratio with elagolix ([2]; female, 300 mg): 25% | Cmax and AUCinf values upon co-administration with elagolix (direction of change) [2]: increased

COc1ccc2[nH]c([S+]([O-])Cc3ncc(C)c(OC)c3C)nc2c1 (stereo not shown) [omeprazole, 5-methoxy-2-[[(4-methoxy3,5-dimethyl-2-pyridinyl)methyl]sulfinyl]-1H-benzimidazole, reference compound]
decrease in AUCinf with elagolix ([2]; female): 40% | increase in AUCinf with elagolix ([2]; female, 300 mg): 1.8 fold | increase in Cmax with elagolix ([2]; female, 300 mg): 1.9 fold | increase in exposure (AUCinf) with elagolix ([2]; female, im): 2-2.5 fold | Cmax and AUCinf values upon co-administration with elagolix (direction of change) [2]: increased | Effect on Plasma Exposure of Concomitant Drug (AUC) [3]: ↑ omeprazole

CC(C)c1nc(N(C)S(C)(=O)=O)nc(-c2ccc(F)cc2)c1/C=C/[C@@H](O)C[C@@H](O)CC(=O)O [rosuvastatin]
Ratio (90% CI) AUC, co-administration with elagolix vs medication alone [1, 12]: 0.60 | Ratio (90% CI) Cmax, co-administration with elagolix vs medication alone [1, 12]: 0.99 | Effect on Plasma Exposure of Concomitant Drug (AUC) [3]: ↓ rosuvastatin

CN[C@H]1CC[C@@H](c2ccc(Cl)c(Cl)c2)c2ccccc21 [sertraline]
changes in exposures when co-administered with elagolix [1]: No clinically significant changes
